Experimental data from patent US20070154573A1 (priority 2005, published 2007).
Converted amounts (≈) assume the structure as drawn. Read-outs that look alike come from different tables or passages of the source. Marks after values point to notes of the source that are not given here.

Tests used:
PANC1 (pancreas) [1] = settings: for IC50: Homo sapiens, PANC-1, read-out: IC50 of standard agent alone
T24 (bladder) [2] = settings: for IC50: Homo sapiens, read-out: IC50 of standard agent alone
MT-4 cells = assay: Viability of mock-infected MT-4 cells (MTT); type: cell-based; settings: viability of mock-infected MT-4 cells reduced by 50%
Method: Compound concentrations (μg/ml) required to reduce the viability of mock-infected MT-4 cells by 50% are determined by the MTT-method.

HIV-1 = settings: 50% protection of MT-4 cells, MTT-method
Excerpt: 1-Mock-infected MT-4 cell lines are used to support the growth of the HIV-1 virus.
Compound concentrations (μg/ml) required to achieve 50% protection of MT-4 cells from the HIV-1 induced cytopathogenecity, as determined by the MTT-method.

T24 (bladder) [3] = tested on: T24 (bladder)
PANC1 (pancreas) [4] = tested on: PANC1 (pancreas)
[5] = target: reverse-transcriptase enzyme; assay: Efficacy against reverse-transcriptase (RT); type: biochemical; settings: in vitro
Method: 5.a Efficacy Against Reverse-Transcriptase (RT) Using Phosphonoformate as Inhibitors of RT • The inhibitory effect of the cold extract according to the present invention against the reverse-transcriptase enzyme is also studied using three different concentrations (0.1, 1 and 10 μg/ml) in vitro and compared with the phosphonoformate (PFA) as inhibitors of RT.

O=c1[nH]cc(F)c(=O)[nH]1 [5-FU, 5-fluoro-uracil]
IC50 (PANC1 (pancreas) [1]): 0.247 µg/mL (≈ 1.9 µM) | IC50 (T24 (bladder) [2]): 0.429 µg/mL (≈ 3.3 µM) | IC50 (H460 (lung)): 0.157 µg/mL (≈ 1.21 µM)

COc1cccc2c1C(=O)c1c(O)c3c(c(O)c1C2=O)C[C@@](O)(C(=O)CO)C[C@@H]3O[C@H]1C[C@H](N)[C@H](O)[C@H](C)O1 [ADR, adriamycin]
IC50 (HCT116 (colon)): 0.006 µg/mL (≈ 0.011 µM) | IC50 (PANC1 (pancreas) [1]): 0.022 µg/mL (≈ 0.0405 µM) | IC50 (T24 (bladder) [2]): 0.058 µg/mL (≈ 0.107 µM) | IC50 (H460 (lung)): 0.004 µg/mL (≈ 0.00736 µM)

Cc1cn([C@H]2C[C@H](N=[N+]=[N-])[C@@H](CO)O2)c(=O)[nH]c1=O [AZT]
IC50 (MT-4) (MT-4 cells): >10 µg/mL | EC50 (HIV-1) (HIV-1): 0.01 µg/mL (≈ 0.0374 µM)

Nc1nc2[nH]cc(CCc3ccc(C(=O)N[C@@H](CCC(=O)O)C(=O)O)cc3)c2c(=O)[nH]1 [Alimta, alimta]
standard agent alone, based on IC70 values (PANC1 (pancreas) [1]; PANC1, no Breastin, Exp. GF683, IC70): <100^2) μg/ml | IC50 (H460 (lung)): 0.018 µg/mL (≈ 0.0421 µM)

O=P1(N(CCCl)CCCl)NCCCO1 (stereo not shown) [CYACT, cyclophosphamide]
IC50 (T24 (bladder) [3]): 0.32 µg/mL (≈ 1.23 µM) | IC50 (PANC1 (pancreas) [4]): 0.193 µg/mL (≈ 0.739 µM)

N.N.[Cl][Pt][Cl] [Cis-Platin, cisplatin]
IC50 (HCT116 (colon)): > 30 µg/mL | IC50 of standard agent alone (PANC1 (pancreas) [1]; PANC1, no Breastin, Exp. GF654): 5.48 µg/mL | IC50 of standard agent alone (T24 (bladder) [2]; T24, no Breastin, Exp. GF649): >30 µg/mL

CO[C@@]12[C@H](COC(N)=O)C3=C(C(=O)C(C)=C(N)C3=O)N1C[C@@H]1N[C@@H]12 [Mitomycin, mitomycin-C]
IC50 (T24 (bladder) [3]): 0.056 µg/mL (≈ 0.167 µM) | IC50 (H460 (lung)): 0.009 µg/mL (≈ 0.0269 µM)

CCC1=C[C@@H]2CN(C1)Cc1c([nH]c3ccccc13)[C@@](C(=O)OC)(c1cc3c(cc1OC)N(C)[C@H]1[C@@](O)(C(=O)OC)[C@H](OC(C)=O)[C@]4(CC)C=CCN5CC[C@]31[C@@H]54)C2 [Navelbine, navelbine]
IC50 (HCT116 (colon)): 0.06 µg/mL (≈ 0.077 µM) | IC50 (T24 (bladder) [3]): 0.144 µg/mL (≈ 0.185 µM) | IC50 (PANC1 (pancreas) [4]): 0.119 µg/mL (≈ 0.153 µM) | IC50 (H460 (lung)): 0.057 µg/mL (≈ 0.0732 µM)

O=C(O)P(=O)(O)O [PFA, phosphonoformate]
IC50, reverse-transcriptase enzyme [5]: 6 to 20 µg/mL

CC(=O)O[C@H]1C(=O)[C@@]2(C)[C@H]([C@H](OC(=O)c3ccccc3)[C@]3(O)C[C@H](OC(=O)[C@H](O)[C@@H](NC(=O)c4ccccc4)c4ccccc4)C(C)=C1C3(C)C)[C@]1(OC(C)=O)CO[C@@H]1C[C@@H]2O [TAXOL, taxol]
IC50 (PANC1 (pancreas) [1]): 0.0019 µg/mL (≈ 0.00223 µM) | IC50 (T24 (bladder) [2]): 0.01 µg/mL (≈ 0.0117 µM) | IC50 (H460 (lung)): 0.0019 µg/mL (≈ 0.00223 µM)

CC(=O)O[C@@]12CO[C@@H]1C[C@H](O)[C@@]1(C)C(=O)[C@H](O)C3=C(C)[C@@H](OC(=O)[C@H](O)[C@@H](NC(=O)OC(C)(C)C)c4ccccc4)C[C@@](O)([C@@H](OC(=O)c4ccccc4)[C@H]21)C3(C)C [Taxotere, taxotere]
IC50 (T24 (bladder) [3]): 0.163 µg/mL (≈ 0.202 µM) | IC50 (H460 (lung)): 0.059 µg/mL (≈ 0.073 µM)

CC[C@@]1(O)C(=O)OCc2c1cc1n(c2=O)Cc2cc3c(CN(C)C)c(O)ccc3nc2-1 [Topotecan, topotecan]
IC50 (HCT116 (colon)): 0.0066 µg/mL (≈ 0.0157 µM) | IC50 (T24 (bladder) [3]): 0.0032 µg/mL (≈ 0.00759 µM) | IC50 (H460 (lung)): 0.0079 µg/mL (≈ 0.0187 µM)
